Reference: patent publication US20240238287A1, “PHARMACEUTICAL COMPOSITION FOR PREVENTING OR TREATING CANCER” (priority 2021, published 2024)

Tests used:
NCIN87 cells = test: CyQUANT cell proliferation assay, intestinal subtype cell line; assay type: cell-based; settings: DON 1, 50, 150 μM, CB839 1, 5, 25 μM, BPTES 5, 10, 25 μM, FIGS. 5 to 7
Description: (§1) NCIN87, an intestinal subtype cell line, and HS746T, a stem-like subtype cell line, were dispensed in a 96-well plate (black) with 5000 cells each, and replaced with glutamine-deficient culture medium (Gibco) the next day. Then, the cell lines were treated with DON (1 μM, 50 μM, 150 μM; selleckchem, cat no. S8620), CB839 (1 μM, 5 μM, 25 μM; cayman, cat no. S7655) or BPTES (5 μM, 10 μM, 25 μM; MCE, cat no. HY-12683) and the treatment time was 0 hours, and the cell culture medium was discarded at 24, […] and 72 hours, and stored in an ultra-low temperature freezer at −80° C. After culturing the cells stored in this way at room temperature, 200 μl of cell lysate containing GR dye contained in the cell viability assay kit (CyQUANT cell proliferation assay, Invitrogen) was placed in each well of the cultured cells and incubated at room temperature for 5 min. Afterwards, The intensity of fluorescence was measured at a wavelength of 480 nm and 520 nm excitation using a fluorescence photometer (thermo, varioskan flash 3001), and the measured value was standardized to the number of cells at 0 hour, quantified in %, and the value was shown in FIGS. 4 to 7.

[1] = tested on: glutamine-dependent liver cancer cells; settings: cited from earlier work
[2] = tested on: GA077 stem-like subtype organoid; test: Organoid diameter by optical microscopy; assay type: cell-based; settings: CB839 5 μM alone, D1 to D4, FIG. 8
HS746T cells [3] = test: CyQUANT cell proliferation / viability assay, stem-like subtype cell line; assay type: cell-based; settings: for cell proliferation: HS746T, DON 1, 50, 150 μM, CB839 1, 5, 25 μM, BPTES 5, 10, 25 μM, FIGS. 5 to 7; for survival of HS746T, inhibitor with glutamine deficiency vs each alone: Gln(−), PHGDH inhibitor 25 μM, SHMT inhibitor 1 μM, MTHFD2 inhibitor 0.5 μM, FIGS. 9 to 11
Description: as §1
As described in Example 4, after dispensing and incubating the stem-like subtype cell line HS746T, replacing it with a glutamine-deficient culture medium, administering a PHGDH inhibitor (25 μM), SHMT inhibitor (1 μM) or MTHFD2 inhibitor (0.5 μM), and using a cell viability assay kit, the survival rate measured using the cell viability assay kit was shown in FIGS. 9 to 11.

HS746T cells [4] = test: Ratio of reduced (GSH) to oxidized glutathione (GSSG); assay type: cell-based; settings: HS746T cultured without glutamine plus PHGDH inhibition
SEM-type GC cells [5] = test: Mitochondrial ROS estimated by MitoSOX; assay type: cell-based; settings: NCT503 treatment and glutamine starvation
HS746T cells [6] = test: Amount of NADP; assay type: cell-based; settings: PHGDH-inhibited cells with glutamine deficiency
SEM-type GC cells [7] = test: Cell death by GLS/PHGDH inhibitor cotreatment and antioxidant rescue; assay type: cell-based; settings: addition of antioxidant

Structure (SMILES) | cell proliferation (NCIN87 cells) | cell proliferation (HS746T cells [3]) | survival of HS746T, inhibitor with glutamine deficiency vs each alone (HS746T cells [3]) | other results
O=C(Cc1cccc(OC(F)(F)F)c1)Nc1ccc(CCCCc2nnc(NC(=O)Cc3ccccn3)s2)nn1 [CB839] | inhibited | not reduced | – | antitumor effect of single-drug treatment [1]: very limited antitumor effect; organoid size (diameter) [2]: not reduced in size
Cc1cc(C)nc(NC(=S)N2CCN(Cc3ccc(C(F)(F)F)cc3)CC2)c1 [NCT503] | – | – | significant synergistic effect | ratio of reduced glutathione (GSH) to oxidized glutathione (GSSG) (HS746T cells [4]): decreased; mitochondrial ROS estimated by MitoSOX (SEM-type GC cells [5]): highest; amount of NADP (HS746T cells [6]): lowest
Cc1n[nH]c2c1C(c1cc(CO)cc(-c3ccccc3)c1)(C(C)C)C(C#N)=C(N)O2 (stereo not drawn) [SHMTi] | – | – | significant synergistic effect | –
O=C(Cc1ccccc1)Nc1nnc(CCSCCc2nnc(NC(=O)Cc3ccccc3)s2)s1 [BPTES] | inhibited | not reduced | – | –
Cc1c(N2CCN(C)[C@@H](C)C2)ccc2c3c(c(=O)oc12)CN(C(=O)c1ccc(NS(C)(=O)=O)c(OC(F)(F)F)c1)CC3 [MTHFD2i] | – | – | significant synergistic effect | –
[N-]=[N+]=CC(=O)CC[C@H](N)C(=O)O [DON] | inhibited | not reduced | – | –
CC(=O)N[C@@H](CS)C(=O)O [NAC, N-acetylcysteine] | – | – | – | rescue of cell death induced by cotreatment with CB839 and NCT503 (SEM-type GC cells [7]): partially rescued
